{"source": "patent US20040235759A1", "about": "“Use of azalide antibiotic compositions for treating or preventing a bacterial or protozoal infection in mammals” (Pfizer Inc, priority 2000, published 2004)", "key": {"[1]": {"assay": "Equilibration of N-(n-propyl) isomer I and isomer II in heated aqueous acid solution, HPLC (Example 2, Table 1)", "format": "physicochemical", "conditions": "N-(n-propyl) isomer I prior to equilibration, for comparison", "description": "The equilibrium ratio of N-(n-propyl) isomer I and N-(n-propyl) isomer II (about 90%±4% to about 10%±4%, respectively) was consistent for all experiments. […] Without being bound by any theory, lower equilibration temperatures or lower pH values generally result in substantially longer equilibration times. Equilibration time can also depend on, inter alia, the concentration of starting material, and the type and concentration of the acid used. N-(n-propyl) isomer I at a concentration of up to about 300 mg per mL of composition was heated to a temperature of about 40° C. to about 80° C. in the presence of one or more acids at a concentration of about 0.2 mmol to about 1.0 mmol per mL of mixture and with a sufficient quantity of hydrochloric acid to achieve a pH of about 6.5 to about 7.5 for up to about 20 hours to produce an equilibrium mixture of isomers that is about 95%-98% pure. Equilibration kinetic parameters and impurity levels for equilibration of N-(n-propyl) isomer I and N-(n-propyl) isomer II were determined as a function of pH, equilibration temperature, type of acid, and N-(n-propyl) isomer I concentration and are listed in Table 1. […]\nEquilibrium mixtures of isomers were prepared and assayed as follows. […] Where 0.1 M citric or tartaric acid was used, hydrochloric acid was also added in a quantity sufficient to obtain the pH listed in column 2. […]"}, "Pasteurella multocida": {"tested_on": "Pasteurella multocida", "assay": "Therapeutic efficacy in swine infected with Pasteurella multocida (Example 5)", "format": "in vivo", "conditions": "pigs, P. multocida challenge, 1.25 mg/kg intramuscular", "description": "By Apotency-actual@ number, as used herein, is meant the actual mg per mL of the substantially pure mixture or equilibrium mixture of N-(n-propyl) isomer I and N-(n-propyl) isomer II present in the pharmaceutical composition.\nFifty clinically normal and healthy pigs having a consistent body weight of approximately 10 kg were selected from a pool of 60 animals. Selected animals (10 per treatment) were randomly assigned to treatment and sorted into pens accordingly. On day 0, each animal was inoculated endotracheally with 25 mL of Pasteurella multocida challenge culture. […] Temperatures and illness scores were recorded 6 hours post-challenge and once daily beginning at 24 hours post-challenge. […] An estimate of the percentage of affected lung tissue was determined and recorded. […]\nAssessment of efficacy was determined based upon comparison of mean daily illness scores, temperatures and lung-lesion scores. Differences between treatments for mean daily rectal temperatures and illness scores were evaluated by a repeated measures analysis of variance. Differences between mean lung-lesion scores for each treatment were evaluated using a factorial analysis of variance procedure. […]"}, "[2]": {"tested_on": "Actinobacillus pleuropneumoniae", "assay": "Pigs at a high risk for developing an Actinobacillus pleuropneumoniae infection, seeder-pig exposure (Example 8)", "format": "in vivo", "description": "One hundred and thirty clinically healthy pigs having an average body weight of approximately 10 kg were purchased, identified with an ear tag and acclimated to the study site 2 days before the study began. On day −1, all animals were weighed and 100 animals were selected for consistency of body weight (about 10 kg) and lack of signs of clinical abnormalities. Selected animals (20 per treatment) were randomly assigned to treatment and sorted into individual pens. A group of 25 additional animals were randomly assigned as seeder pigs (5 per treatment). […] Temperatures and illness scores were recorded daily. […] An estimate of the percentage of affected lung tissue was determined and recorded. […]\nAssessment of efficacy was determined based upon comparison of mean daily illness scores, temperatures and lung-lesion scores. Differences between treatments for mean daily rectal temperatures and illness scores were evaluated by a repeated-measures analysis of variance. […]"}, "[3]": {"tested_on": "Eimeria bovis, Eimeria aubumenis and Eimeria zuernii coccidia oocysts", "assay": "Calves challenged with a coccidia challenge culture (Example 9)", "format": "in vivo", "description": "Sixty naive calves weighing approximately 110-125 kg were purchased from local dairies, weighed, identified by ear tag, and observed for general health assessments. Animals considered physically abnormal, undersized or moribund on arrival were excluded from the study. Calves were housed in five holding pens (12 animals/pen). Calves were held for 7 days prior to challenge in order to acclimate them to the facility. Prior to challenge, calves were excluded from the study at the discretion of the investigator. On days −6, −4 and −2 pre-challenge, fecal samples were obtained for semi-quantitative oocyst counts. On day −4 pre-challenge, oocysts, if present, were speciated.\nOn day 8 post-arrival (study day 0), calves were inoculated orally with the Eimeria culture. Beginning on day 1, temperatures were determined and recorded at approximately the same time each day for the duration of the study. Attitude, hydration and fecal consistency scores were evaluated daily. Post-challenge, fecal samples were collected on days 2, 4, 6, 8 and 10. Oocysts were speciated on day 10 post-challenge. On day 10 post-challenge, fifty animals were randomly allotted to one of five treatment groups using a randomized block allotment. Treatments were equally represented in each pen. Animals were injected subcutaneously with a single dose of one of the following solutions: (1) about 4 mL of sterile 0.9% sodium chloride (saline); (2) about 4 mL of 300 mg/mL MICOTIL at a dose of 10 mg/kg of body weight; (3) about 6 mL of the pharmaceutical composition at a dose of 5 mg/kg of body weight; (4) about 3 mL of the pharmaceutical composition at a dose of 2.5 mg/kg of body weight; or animals were drenched dosed orally with (5) about 2 oz. of amprolium in a 9.6% oral solution at a dose of 10 mg/kg of body weight. Only amprolium was re-administered on each of the following four days. All other treatments were given in a single dose injection. Fecal samples were examined semi-quantitatively post-treatment for shedding of coccidia oocysts on days 12, 14, 16 and 18. Beginning on day 19 and continuing through day 28, daily fecal samples were evaluated for semi-quantitative counts. Speciation of shed oocysts was performed on days 19-21, 23, 26 and 28. Calves that died during the course of the study or that were euthanized due to a moribund condition associated with clinical coccidiosis were counted as mortalities. Mortalities were necropsied and gross findings were recorded. At the termination of the study on day 28, all remaining animals were weighed, euthanized and examined post-mortem.\nAssessment of drug efficacy was determined based upon analysis of mean daily clinical scores, temperature and oocyst shedding. Differences in clinical scores and temperature between different treatments were evaluated by repeated measures ANOVA. Differences in weight gain were determined by factorial ANOVA. Comparisons of mortality rates and oocyst shedding between treatments was performed using Chi-Square analysis and Fisher's Exact test."}, "[4]": {"conditions": "amprolium, MICOTIL, or pharmaceutical composition at either dose level"}}}
{"smiles": "CCCNC[C@]1(O)[C@H](C)O[C@@H](O[C@H]2[C@H](C)[C@@H](O[C@@H]3O[C@H](C)C[C@H](N(C)C)[C@H]3O)[C@](C)(O)C[C@@H](C)CN[C@H](C)[C@@H](O)[C@](C)(O)[C@@H](CC)OC(=O)[C@@H]2C)C[C@@]1(C)OC", "note": "[DS]", "values": [{"measurement": "% Equilibrium mixture of isomers", "setting": "[1]", "value": 98.39, "unit": "%"}, {"measurement": "% Impurities", "setting": "[1]", "value": 1.61, "unit": "%"}]}
{"smiles": "CN1C[C@@H]2C[C@H]1CN2c1cc2c(cc1F)c(=O)c(C(=O)O)cn2C1CC1", "note": "[Danofloxacin, danofloxacin]", "values": [{"measurement": "Mean Lung Lesion Score (%)", "setting": "Pasteurella multocida; re-administered on each of the following two days", "value": 1.9, "unit": "%"}, {"measurement": "mean daily illness scores", "setting": "Pasteurella multocida; three doses, saline about 3", "value": "about 2"}, {"measurement": "Mean Lung-lesion Score", "setting": "[2]; pigs exposed to A. pleuropneumoniae seeder pigs, 1.25 mg/kg intramuscular, re-administered on each of the following two days", "value": 4.8, "unit": "%"}, {"measurement": "mean daily illness scores in the saline-treated pigs compared to treated animals", "setting": "[2]; pigs, danofloxacin 1.25 mg/kg x3, pharmaceutical composition 2.5, 5, 10 mg/kg", "value": "Statistically significant (p<0.05) elevations"}]}
{"smiles": "CCCc1ncc(C[n+]2ccccc2C)c(N)n1", "note": "[Amprolium, amprolium]", "values": [{"measurement": "21-day Average Daily Weight Gain", "setting": "[3]; 10 mg/kg oral drench from day 10 post-challenge, re-administered on each of the following four days", "value": 0.60, "unit": "kg"}, {"measurement": "mean daily hydration scores compared to the saline treated calves", "setting": "[3]; amprolium 10 mg/kg oral", "value": "statistically significant reductions (p<0.05)"}, {"measurement": "mean daily attitude scores compared to the saline controls", "setting": "[3]; [4]", "value": "significant reductions (p<0.05)"}, {"measurement": "mean daily fecal consistency scores compared to the saline treated calves", "setting": "[3]; [4]", "value": "statistically significant reductions (p<0.05)"}, {"measurement": "oocyst shedding compared to the saline controls", "setting": "[3]; days 19-28 post-challenge", "value": "decreased"}]}
